In assay [1] the test system is adenylate cyclase. As to conditions: for % Relative Activity: adenylate cyclase activity relative to glucagon, liver membranes, analogs measured as amides; for pA2: negative logarithm of antagonist concentration reducing response to 1 unit agonist to that of 0.5 unit, measured as amides. The method, then: Adenylate Cyclase Assay. The assay on liver membranes was performed according to Salomon et al. [Salomon, Y., Londos, C. & rodgell, M. Anal. Biochem. 58, 541, 548 (1974)]. The released cAMP was mixed with [8-^3 H]cAMP measured with a high affinity cAMP binding protein.
The purpose of the adenylate cyclase assay is to measure the ability of the compound under test to stimulate the activity of adenylate cyclase. The assays are used to measure relative potency, maximum activity and inhibition index.
The inhibition index, defined above, was determined from adenylate cyclase assays by two different protocols.
1. A glucagon standard curve for cAMP vs glucagon concentration was established. Then another glucagon assay curve was measured in the presence of a constant amount of antagonist.
2. A series of tubes were set up containing an amount of glucagon which will produce 90% of maximum response. Increasing amounts of antagonist were then added and the concentration that reduced the response to 45% of maximum was determined.

Assay [2] has as its target glucagon receptor (Homo sapiens, UniProt P47871). The settings on record: background statement; cited from earlier work.
Assay [3] deals with adenylate cyclase. As to conditions: background statement; cited from earlier work.

Residues, ends and D or L forms follow the SMILES beside them. No end group written: not given here.

Chain of glucagon receptor (P47871 26-477, species assumed): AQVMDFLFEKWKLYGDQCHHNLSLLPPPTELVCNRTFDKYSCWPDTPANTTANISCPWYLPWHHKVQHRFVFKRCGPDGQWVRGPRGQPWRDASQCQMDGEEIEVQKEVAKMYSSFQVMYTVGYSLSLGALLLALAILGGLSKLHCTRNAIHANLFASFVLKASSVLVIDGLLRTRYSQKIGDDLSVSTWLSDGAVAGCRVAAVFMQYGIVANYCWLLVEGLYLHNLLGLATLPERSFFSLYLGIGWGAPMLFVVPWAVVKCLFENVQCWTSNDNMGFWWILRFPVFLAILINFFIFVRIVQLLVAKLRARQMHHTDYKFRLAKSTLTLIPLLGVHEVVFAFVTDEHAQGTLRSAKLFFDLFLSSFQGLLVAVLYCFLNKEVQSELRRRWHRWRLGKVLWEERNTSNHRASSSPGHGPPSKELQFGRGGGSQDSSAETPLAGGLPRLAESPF

One may read the pA2 as the negative logarithm of the molar antagonist concentration that doubles the agonist concentration needed for the same response. High values mean a more potent antagonist, low ones a weaker antagonist. Turning to `CCCC[C@H](NC(=O)[C@H](CO)NC(=O)[C@@H](NC(=O)[C@H](Cc1ccccc1)NC(=O)[C@@H](NC(=O)CNC(=O)[C@H](CCC(N)=O)NC(=O)[C@H](CO)NC(=O)[C@@H](N)Cc1c[nH]cn1)[C@@H](C)O)[C@@H](C)O)C(=O)N[C@@H](Cc1ccc(O)cc1)C(=O)N[C@@H](C)C(=O)N[C@@H](CCCCN)C(=O)N[C@@H](Cc1ccc(O)cc1)C(=O)N[C@@H](CC(C)C)C(=O)N[C@@H](CC(=O)O)C(=O)N[C@@H](CCC(N)=O)C(=O)N[C@@H](CCCNC(=N)N)C(=O)N[C@@H](CCCNC(=N)N)C(=O)N[C@@H](C)C(=O)N[C@@H](CCC(N)=O)C(=O)N[C@@H](CC(=O)O)C(=O)N[C@@H](Cc1ccccc1)C(=O)N[C@H](C(=O)N[C@@H](CCC(N)=O)C(=O)N[C@@H](Cc1c[nH]c2ccccc12)C(=O)N[C@@H](CC(C)C)C(=O)N[C@@H](CCSC)C(=O)N[C@@H](CC(N)=O)C(=O)N[C@H](C(N)=O)[C@@H](C)O)C(C)C` [Analog 1, Nle^9 Ala^11 Gln^16] (HELM PEPTIDE1{H.S.Q.G.T.F.T.S.[Nle].Y.A.K.Y.L.D.Q.R.R.A.Q.D.F.V.Q.W.L.M.N.T.[am]}$$$$V2.0), in assay [1], the “% Relative Activity” value was 0.003% and the pA2 was found to be 8.7.

On to “SQGTFTSEYAKYLDARRAQEFVQWLMNT-NH2 [Analog 5, des-His^1 Glu^9 Ala^11 Ala^16 Glu^21]”, for which, in assay [1], the “% Relative Activity” value came to 0.016% and the pA2 is recorded as 8.5.

On to `CCCC[C@H](NC(=O)[C@H](CO)NC(=O)[C@@H](NC(=O)[C@H](Cc1ccccc1)NC(=O)[C@@H](NC(=O)CNC(=O)[C@H](CCC(N)=O)NC(=O)[C@@H](N)CO)[C@@H](C)O)[C@@H](C)O)C(=O)N[C@@H](Cc1ccc(O)cc1)C(=O)N[C@@H](C)C(=O)N[C@@H](CCCCN)C(=O)N[C@@H](Cc1ccc(O)cc1)C(=O)N[C@@H](CC(C)C)C(=O)N[C@@H](CC(=O)O)C(=O)N[C@@H](C)C(=O)N[C@@H](CCCNC(=N)N)C(=O)N[C@@H](CCCNC(=N)N)C(=O)N[C@@H](C)C(=O)N[C@@H](CCC(N)=O)C(=O)N[C@@H](CC(=O)O)C(=O)N[C@@H](Cc1ccccc1)C(=O)N[C@H](C(=O)N[C@@H](CCC(N)=O)C(=O)N[C@@H](Cc1c[nH]c2ccccc12)C(=O)N[C@@H](CC(C)C)C(=O)N[C@@H](CCSC)C(=O)N[C@@H](CC(N)=O)C(=O)N[C@H](C(N)=O)[C@@H](C)O)C(C)C` [Analog 3, des-His^1 Nle^9 Ala^11 Ala^16] (HELM PEPTIDE1{S.Q.G.T.F.T.S.[Nle].Y.A.K.Y.L.D.A.R.R.A.Q.D.F.V.Q.W.L.M.N.T.[am]}$$$$V2.0), for which, in assay [1], the “% Relative Activity” value is 0.0043% and the pA2 turned out to be 8.4.

Take “Nα-trinitrophenyl [12-homoarginine]glucagon”: in assay [2], the “binding to the glucagon receptor” value is recorded as “does bind to the glucagon receptor”. The “activation of adenylate cyclase” value in assay [3] is given as “without significant activation of adenylate cyclase”.

With `CCCC[C@H](NC(=O)[C@H](CO)NC(=O)[C@@H](NC(=O)[C@H](Cc1ccccc1)NC(=O)[C@@H](NC(=O)CNC(=O)[C@H](CCC(N)=O)NC(=O)[C@@H](N)CO)[C@@H](C)O)[C@@H](C)O)C(=O)N[C@@H](Cc1ccc(O)cc1)C(=O)N[C@@H](C)C(=O)N[C@@H](CCCCN)C(=O)N[C@@H](Cc1ccc(O)cc1)C(=O)N[C@@H](CC(C)C)C(=O)N[C@@H](CC(=O)O)C(=O)N[C@@H](CCC(N)=O)C(=O)N[C@@H](CCCNC(=N)N)C(=O)N[C@@H](CCCNC(=N)N)C(=O)N[C@@H](C)C(=O)N[C@@H](CCC(N)=O)C(=O)N[C@@H](CC(=O)O)C(=O)N[C@@H](Cc1ccccc1)C(=O)N[C@H](C(=O)N[C@@H](CCC(N)=O)C(=O)N[C@@H](Cc1c[nH]c2ccccc12)C(=O)N[C@@H](CC(C)C)C(=O)N[C@@H](CCSC)C(=O)N[C@@H](CC(N)=O)C(=O)N[C@H](C(N)=O)[C@@H](C)O)C(C)C` [Analog 4, des-His^1 Nle^9 Ala^11 Gln^16] (HELM PEPTIDE1{S.Q.G.T.F.T.S.[Nle].Y.A.K.Y.L.D.Q.R.R.A.Q.D.F.V.Q.W.L.M.N.T.[am]}$$$$V2.0), in assay [1], the “% Relative Activity” value is recorded as 0.0011% and the pA2 turned out to be 8.4.

With `CCCC[C@H](NC(=O)[C@H](CO)NC(=O)[C@@H](NC(=O)[C@H](Cc1ccccc1)NC(=O)[C@@H](NC(=O)CNC(=O)[C@H](CCC(N)=O)NC(=O)[C@@H](N)CO)[C@@H](C)O)[C@@H](C)O)C(=O)N[C@@H](Cc1ccc(O)cc1)C(=O)N[C@@H](CO)C(=O)N[C@@H](CCCCN)C(=O)N[C@@H](Cc1ccc(O)cc1)C(=O)N[C@@H](CC(C)C)C(=O)N[C@@H](CC(=O)O)C(=O)N[C@@H](C)C(=O)N[C@@H](CCCNC(=N)N)C(=O)N[C@@H](CCCNC(=N)N)C(=O)N[C@@H](C)C(=O)N[C@@H](CCC(N)=O)C(=O)N[C@@H](CC(=O)O)C(=O)N[C@@H](Cc1ccccc1)C(=O)N[C@H](C(=O)N[C@@H](CCC(N)=O)C(=O)N[C@@H](Cc1c[nH]c2ccccc12)C(=O)N[C@@H](CC(C)C)C(=O)N[C@@H](CCSC)C(=O)N[C@@H](CC(N)=O)C(=O)N[C@H](C(N)=O)[C@@H](C)O)C(C)C` [Analog 2, des-His^1 Nle^9 Ala^16] (HELM PEPTIDE1{S.Q.G.T.F.T.S.[Nle].Y.S.K.Y.L.D.A.R.R.A.Q.D.F.V.Q.W.L.M.N.T.[am]}$$$$V2.0), in assay [1], the “% Relative Activity” value worked out at 0.001% and the pA2 stood at 8.4.

These data come from patent US5480867A, “Glucagon analogs with serine replacements” (The Rockefeller University, priority 1994, dated 1996).
